Ten molecules from patent US20120046276A1, “Tuberculosis treatment using pleuromutilin derivatives” (priority 2002, published 2012) can be followed below.

Type in all cases: cell-based
Assay [1] relates to Mycobacterium tuberculosis strain 3. As to the kind of experiment: Agar Dilution Test (MIC), strain 3 (Isoniacid R, Rifampicin R, Streptomycin S). On the technique in general: Agar dilution tests growth on a series of plates holding different concentrations.
Assay [2] deals with Mycobacterium tuberculosis strain 2. As to the kind of experiment: Agar Dilution Test (MIC), strain 2 (Isoniacid S, Rifampicin S, Streptomycin S).
Assay [3] concerns Mycobacterium tuberculosis strain 1. As to the kind of experiment: Agar Dilution Test (MIC), strain 1 (Isoniacid S, Rifampicin S, Streptomycin S). The note with it: read-out: MIC against Mycobacterium tuberculosis of strain number 1.
In assay [4] the test system is Mycobacterium tuberculosis strain 7. As to the kind of experiment: Agar Dilution Test (MIC), strain 7 (Isoniacid R, Rifampicin S, Streptomycin R).
Assay [5] has as its system Mycobacterium tuberculosis strain 4. The experiment in a line: Agar Dilution Test (MIC), strain 4 (Isoniacid R, Rifampicin R, Streptomycin R).
The subject of assay [6] is Mycobacterium tuberculosis strain 6. As to the kind of experiment: Agar Dilution Test (MIC), strain 6 (Isoniacid S, Rifampicin S, Streptomycin S).
For assay [7], the system named is Mycobacterium tuberculosis strain 11. As to the kind of experiment: Agar Dilution Test (MIC), strain 11 (Isoniacid S, Rifampicin S, Streptomycin S).
Assay [8] deals with Mycobacterium tuberculosis strain 13. As to the kind of experiment: Agar Dilution Test (MIC), strain 13 (Isoniacid S, Rifampicin S, Streptomycin S).
For assay [9], the system named is Mycobacterium tuberculosis strain 10. The experiment in a line: Agar Dilution Test (MIC), strain 10 (Isoniacid S, Rifampicin S, Streptomycin S).
For assay [10], the system named is Mycobacterium tuberculosis strain 8. As to the kind of experiment: Agar Dilution Test (MIC), strain 8 (Isoniacid S, Rifampicin R, Streptomycin S).
In assay [11] the test system is Mycobacterium tuberculosis strain 5. The experiment in a line: Agar Dilution Test (MIC), strain 5 (Isoniacid R, Rifampicin R, Streptomycin S).
In assay [12] the test system is Mycobacterium tuberculosis strain 15 (labor strain 137 kV). The experiment in a line: Agar Dilution Test (MIC), strain 15 = labor strain 137 kV (Isoniacid S, Rifampicin S, Streptomycin S).
Assay [13] concerns Mycobacterium tuberculosis strain 12. As to the kind of experiment: Agar Dilution Test (MIC), strain 12 (Isoniacid S, Rifampicin S, Streptomycin S).
Assay [14] deals with Mycobacterium tuberculosis strain 14. The experiment in a line: Agar Dilution Test (MIC), strain 14 (Isoniacid S, Rifampicin S, Streptomycin S).
Where [15] appears, read: Mycobacterium tuberculosis, 1, 504 h.
The mark [16] stands for this setting: Mycobacterium tuberculosis, 1, 672 h.
[17] abbreviates: Mycobacterium tuberculosis, 1, 840 h.
[18] abbreviates: TABLE C; week 4*) tested after 31 days.
[19] abbreviates: TABLE D; week 4*) tested after 31 days.
The mark [20] stands for this setting: Mycobacterium tuberculosis, 1, 336 h.
Where [21] appears, read: Mycobacterium tuberculosis, 1, 168 h.

Values after ≈ are worked out from the molar mass of the structure shown. Values joined by “and” are separate entries in the source; they are usually repeats but may differ in a detail not shown here. Equal entries are not always repeated. Where two headings read alike, the source gives them in different places.

The MIC is the lowest concentration found to suppress growth. `C=C[C@]1(C)C[C@@H](OC(=O)CSCCN(CC)CC)[C@]2(C)C(C)CC[C@]3(CCC(=O)C32)[C@@H](C)[C@@H]1O` (stereo partly drawn) [TC-1, 14-Desoxy-14[(2-diethylaminoethyl)mercaptoacetoxy]mutilin]: the “MIC against Mycobacterium tuberculosis of strain number 3” value (“MIC … of strain number 3” for short) in assay [1] worked out at 5 µg/mL. The “MIC against Mycobacterium tuberculosis of strain number 2” value (“MIC … of strain number 2” for short) in [2] was found to be 5 µg/mL. The MIC in assay [3] (setting [15]), in assay [3] (setting [16]) and in [3] (setting [17]) was 5 µg/mL (≈ 10.1 µM) throughout. In addition, in assay [4], the “MIC against Mycobacterium tuberculosis of strain number 7” value (shortened to “MIC … of strain number 7”) was 10 µg/mL and 20 µg/mL. For the same molecule, the “MIC against Mycobacterium tuberculosis of strain number 4” value (from here on “MIC … of strain number 4”) in assay [5] is 5 µg/mL and 10 µg/mL. Besides, the “MIC against Mycobacterium tuberculosis of strain number 6” value (shortened to “MIC … of strain number 6”) in assay [6] stood at 10 µg/mL.

Regarding `C=C[C@]1(C)C[C@@H](OC(=O)CSC(C)(C)CNC(=O)[C@H](N)C(C)C)[C@]2(C)[C@H](C)CC[C@]3(CCC(=O)[C@H]32)[C@@H](C)[C@@H]1O` [TC-2, Valnemulin], in assay [1] (setting [18]), the “MIC … of strain number 3” value is 2 µg/mL. For the same molecule, the “MIC against Mycobacterium tuberculosis of strain number 11” value worked out at 2 µg/mL in [7] and 4 µg/mL in assay [7] (setting [19]). Besides, the “MIC … of strain number 2” value in assay [2] (setting [18]) worked out at 4 µg/mL. The “MIC against Mycobacterium tuberculosis of strain number 13” value in assay [8] is 4 µg/mL; in assay [8] (setting [19]) it was 8 µg/mL. The “MIC against Mycobacterium tuberculosis of strain number 10” value in [9] and in [9] (setting [19]) was 4 µg/mL in each case. Moreover, the minimum inhibitory concentration (MIC) in assay [3] (setting [15]) stood at 0.5 µg/mL (≈ 0.885 µM); in assay [3] (setting [16]), 0.5 µg/mL (≈ 0.885 µM); in [3] (Mycobacterium tuberculosis, 1, 744 h, TABLE C; week 4*) tested after 31 days), 0.5 µg/mL (≈ 0.885 µM); in assay [3] (setting [17]), 0.5 µg/mL (≈ 0.885 µM). Further, the “MIC against Mycobacterium tuberculosis of strain number 8” value is 4 µg/mL in assay [10] and 8 µg/mL in assay [10] (setting [18]). For the same molecule, the “MIC against Mycobacterium tuberculosis of strain number 5” value in assay [11] is 2 µg/mL; in assay [11] (setting [18]), 4 µg/mL. Besides, in assay [4] (setting [18]), the “MIC … of strain number 7” value turned out to be 8 µg/mL. In addition, the “MIC … of strain number 4” value was 5 µg/mL and 8 µg/mL in [5]; 8 µg/mL in assay [5] (setting [18]). The “MIC … of strain number 6” value in assay [6] was 5 µg/mL and 4 µg/mL; in assay [6] (setting [18]), 4 µg/mL. In addition, the “MIC against Mycobacterium tuberculosis of strain number 15” value (“MIC … of strain number 15” below) in [12] was determined as 2 µg/mL; in assay [12] (setting [19]), 4 µg/mL. Further, the “MIC against Mycobacterium tuberculosis of strain number 12” value (shortened to “MIC … of strain number 12”) in [13] and in assay [13] (setting [19]) was 4 µg/mL each time. Also, the “MIC against Mycobacterium tuberculosis of strain number 14” value in assay [14] and in assay [14] (setting [19]) was 4 µg/mL each time.

Take `C=C[C@]1(C)C[C@@H](OC(=O)CSc2cccc(NC(=N)N)c2)[C@]2(C)C(C)CCC3(CCC(=O)C32)[C@@H](C)C1O` (stereo partly drawn) [TC-6]: the MIC in assay [3] (setting [20]) turned out to be 1 µg/mL (≈ 1.89 µM). The “MIC … of strain number 15” value in assay [12] stood at 0.5 µg/mL. The “MIC … of strain number 12” value in assay [13] turned out to be 1 µg/mL.

On to `C=C[C@]1(C)C[C@@H](OC(=O)CSC2CCCC(=NO)C2)[C@]2(C)C(C)CCC3(CCC(=O)C32)[C@@H](C)C1O` (stereo partly drawn) [TC-9], for which the MIC in assay [3] (setting [21]) was 8 µg/mL (≈ 15.8 µM). The “MIC … of strain number 15” value in assay [12] was 32 µg/mL. Moreover, in assay [13], the “MIC … of strain number 12” value amounted to 32 µg/mL.

For `C=C[C@]1(C)C[C@@H](OC(=O)CSC2CCCN(C(=O)C(N)C(C)C)C2)[C@]2(C)C(C)CCC3(CCC(=O)C32)[C@@H](C)C1O` (stereo partly drawn) [TC-4], the “MIC against Mycobacterium tuberculosis of strain number 11” value in [7] stood at 2 µg/mL. The “MIC … of strain number 2” value in [2] was 5 µg/mL and 4 µg/mL. For the same molecule, in assay [8], the “MIC against Mycobacterium tuberculosis of strain number 13” value is 4 µg/mL and 2 µg/mL. For the same molecule, in assay [9], the “MIC against Mycobacterium tuberculosis of strain number 10” value is 4 µg/mL and 2 µg/mL. Also, the MIC was found to be 0.5 µg/mL (≈ 0.867 µM) in assay [3] (setting [15]), 1 µg/mL (≈ 1.73 µM) in assay [3] (setting [16]) and 1 µg/mL (≈ 1.73 µM) in [3] (setting [17]). The “MIC against Mycobacterium tuberculosis of strain number 8” value in assay [10] is 4 µg/mL and 2 µg/mL. For the same molecule, the “MIC against Mycobacterium tuberculosis of strain number 5” value in [11] came out at 2 µg/mL. In addition, the “MIC … of strain number 6” value in [6] is 5 µg/mL and 4 µg/mL. In addition, the “MIC … of strain number 15” value in [12] was 4 µg/mL and 2 µg/mL. Further, the “MIC … of strain number 12” value in [13] is 4 µg/mL and 2 µg/mL. In addition, the “MIC against Mycobacterium tuberculosis of strain number 14” value in assay [14] was found to be 4 µg/mL.

Turning to `C=C[C@]1(C)C[C@@H](OC(=O)CSc2cccc(NC(=O)C3CCCCN3)c2)[C@]2(C)C(C)CCC3(CCC(=O)C32)[C@@H](C)C1O` (stereo partly drawn) [TC-3], in assay [1], the “MIC … of strain number 3” value was 5 µg/mL. Further, the “MIC … of strain number 2” value in assay [2] was determined as 5 µg/mL. Also, the minimum inhibitory concentration (MIC) in assay [3] (setting [15]), in assay [3] (setting [16]) and in [3] (setting [17]) was 1 µg/mL (≈ 1.68 µM) each time. The “MIC … of strain number 7” value in [4] came out at 20 µg/mL. Further, the “MIC … of strain number 6” value in assay [6] is 5 µg/mL and 10 µg/mL.

`C=C[C@]1(C)C[C@@H](OC(=O)CSC(C)(C)C(N)C(=O)NC)[C@]2(C)C(C)CCC3(CCC(=O)C32)[C@@H](C)C1O` (stereo partly drawn) [TC-7]: the MIC in assay [3] (setting [21]) turned out to be 2 µg/mL (≈ 3.83 µM). Further, the “MIC … of strain number 15” value in assay [12] was determined as 32 µg/mL. Besides, in [13], the “MIC … of strain number 12” value was found to be 32 µg/mL.

As to `C=C[C@]1(C)C[C@@H](OC(=O)CSC(C)(C)C(N)C(=O)N2CCN(C)CC2)[C@]2(C)C(C)CCC3(CCC(=O)C32)[C@@H](C)C1O` (stereo partly drawn) [TC-8], the MIC in assay [3] (setting [21]) was determined as 2 µg/mL (≈ 3.38 µM). Also, in assay [12], the “MIC … of strain number 15” value amounted to 32 µg/mL. The “MIC … of strain number 12” value in assay [13] stood at 32 µg/mL.

For the molecule `C=C[C@]1(C)C[C@@H](OC(=O)CSC2CCNCC2O)[C@]2(C)C(C)CCC3(CCC(=O)C32)[C@@H](C)C1O` (stereo partly drawn) [TC-10], the MIC in [3] (setting [20]) worked out at 2 µg/mL (≈ 4.05 µM). Besides, the “MIC … of strain number 15” value in assay [12] was found to be 4 µg/mL. For the same molecule, the “MIC … of strain number 12” value in [13] is 16 µg/mL.

For the molecule `C=C[C@]1(C)C[C@@H](OC(=O)CSc2cccc(NC(=O)C(N)CCCNC(=N)N)c2)[C@]2(C)C(C)CCC3(CCC(=O)C32)[C@@H](C)C1O` (stereo partly drawn) [TC-5], the “MIC … of strain number 3” value in assay [1] worked out at 5 µg/mL. The “MIC … of strain number 2” value in [2] amounted to 5 µg/mL. The MIC in assay [3] (setting [15]) worked out at 1 µg/mL (≈ 1.56 µM); in assay [3] (setting [16]) it was 5 µg/mL (≈ 7.79 µM); in assay [3] (setting [17]) it was 5 µg/mL (≈ 7.79 µM). In addition, the “MIC … of strain number 7” value in assay [4] was 5 µg/mL and 10 µg/mL. Also, the “MIC … of strain number 4” value in [5] is 5 µg/mL and 10 µg/mL. The “MIC … of strain number 6” value in assay [6] is 5 µg/mL and 10 µg/mL.
